# Biological target: T1, human FSH receptor (Homo sapiens, UniProt P23945)
# T1 construct: expressed in transfected cells; host or cells: CHO cells, cotransfected with a CRE/promotor firefly luciferase reporter
# T1 sequence (P23945 18-695): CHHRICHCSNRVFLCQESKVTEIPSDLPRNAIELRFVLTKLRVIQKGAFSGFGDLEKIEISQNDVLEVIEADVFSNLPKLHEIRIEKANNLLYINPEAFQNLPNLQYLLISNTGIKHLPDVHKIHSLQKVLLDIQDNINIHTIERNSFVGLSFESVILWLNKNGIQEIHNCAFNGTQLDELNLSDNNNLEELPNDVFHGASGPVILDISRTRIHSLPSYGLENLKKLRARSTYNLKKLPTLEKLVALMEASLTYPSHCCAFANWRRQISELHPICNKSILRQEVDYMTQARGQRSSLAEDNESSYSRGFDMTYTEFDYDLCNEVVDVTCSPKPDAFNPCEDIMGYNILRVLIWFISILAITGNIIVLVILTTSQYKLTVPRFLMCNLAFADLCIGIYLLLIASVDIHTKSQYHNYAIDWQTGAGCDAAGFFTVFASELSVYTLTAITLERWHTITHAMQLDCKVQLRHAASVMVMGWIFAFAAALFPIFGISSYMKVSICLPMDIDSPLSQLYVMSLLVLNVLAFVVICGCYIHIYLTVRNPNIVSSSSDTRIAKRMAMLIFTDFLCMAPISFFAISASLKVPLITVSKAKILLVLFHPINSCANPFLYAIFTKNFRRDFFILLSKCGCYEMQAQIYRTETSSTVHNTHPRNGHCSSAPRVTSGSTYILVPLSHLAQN
# Test: Antagonistic activity at the human FSH receptor expressed in CHO cells (CRE-luciferase reporter)
# Assay type: cell-based
# Details: CHO cells stably transfected with human FSH receptor and CRE/firefly luciferase reporter; 4 hours incubation; read-out: pIC50 (negative logarithm of the IC50 value) (converted)
# Description: The FSHR antagonists of the invention have pIC50 values higher than 6 in said assay. The preferred compounds of the invention have pIC50 values higher than 8.
# Antagonistic activity of the compounds at the human FSH receptor was determined in Chinese Hamster Ovary (CHO) cells stably transfected with the human FSH receptor and cotransfected with a cAMP responsive element (CRE)/promotor directing the expression of a firefly luciferase reporter gene. […] The cells (7,500 cells/well of a 384 well plate) were incubated in Dulbecco′ minimal essential F12 modified medium (Invitrogen), supplemented with 1 μg/ml bovine insulin, 5 μg/ml human apo-transferrin, 100 U/ml penicillin G and 100 μg/ml streptomycin with the test compounds (concentration between 0.316 nM and 10.0 μM) in duplicate together with […] (which, at this concentration in the absence of test compound, induces 80% of the maximal luciferase stimulation) in a humidified atmosphere (95%) at 5-7% CO2 and 37° C. The final concentration of DMSO was 1%. After 4 hours of incubation, plates were allowed to adjust to room temperature for 1 hour. Then, SteadyLite (Perkin Elmer) solution was added to the wells and cells were allowed to lyse for at least 1 hour at room temperature. Subsequently, luciferase activity was measured in a luminescence counter. The signal is expressed as counts per second (cps). The IC50 (concentration of test compound causing half-maximal (50%) inhibition of the maximally attainable inhibition of the luciferase stimulation by the compound) and efficacy of the compounds were determined using the software program MathIQ (version 2.3, ID Business Solutions Limited).
row,Structure (SMILES),IC50
1,"COc1cc(NC(=O)C2CCN(c3ccnc(-c4cccc(-n5cccn5)c4)n3)CC2)cc(OCc2cc(C)on2)c1 [Example 43, 1-(2-(3-(1H-pyrazol-1-yl)phenyl)pyrimidin-4-yl)-N-(3-methoxy-5-((5-methylisoxazol-3-yl)methoxy)phenyl)piperidine-4-carboxamide]",< 0.01 µM
2,"COc1cc(NC(=O)C2CCN(c3ccnc(-c4cccc(-n5cccn5)c4)n3)CC2)cc(OC(C)C)c1 [Example 44, 1-(2-(3-(1H-pyrazol-1-yl)phenyl)pyrimidin-4-yl)-N-(3-isopropoxy-5-methoxyphenyl)piperidine-4-carboxamide]",0.01 to 0.1 µM
3,"Cc1cc(NC(=O)C2CCN(c3ccnc(-c4cccc(-n5cccn5)c4)n3)CC2)cc(OC(F)(F)F)c1 [Example 46, 1-(2-(3-(1H-pyrazol-1-yl)phenyl)pyrimidin-4-yl)-N-(3-methyl-5-(trifluoromethoxy)phenyl)piperidine-4-carboxamide]",0.01 to 0.1 µM
4,"COc1cc(NC(=O)C2CCN(c3ccnc(-c4cccc(-n5cccn5)c4)n3)CC2)cc(OC)c1 [Example 51, 1-(2-(3-(1H-pyrazol-1-yl)phenyl)pyrimidin-4-yl)-N-(3,5-dimethoxyphenyl) piperidine-4-carboxamide]",< 0.01 µM

# Second part, the compound after the results:
row,IC50,Structure (SMILES)
1,< 0.01 µM,"COc1cc(OCC2CC2)cc(C(=O)NCC2CCN(c3ncnc(-c4cccc(-c5ncc[nH]5)c4)n3)CC2)c1 [Example 40, N-((1-(4-(3-(1H-imidazol-2-yl)phenyl)-1,3,5-triazin-2-yl)piperidin-4-yl)methyl)-3-(cyclopropylmethoxy)-5-methoxybenzamide 2,2,2-trifluoroacetate]"
2,< 0.01 µM,"COc1cc(OCC2CC2)cc(C(=O)NCC2CCN(c3nc(-c4cccc(-c5ncc[nH]5)c4)ncc3F)CC2)c1 [Example 41, N-((1-(2-(3-(1H-imidazol-2-yl)phenyl)-5-fluoropyrimidin-4-yl)piperidin-4-yl)methyl)-3-(cyclopropylmethoxy)-5-methoxybenzamide 2,2,2-trifluoroacetate]"
3,0.01 to 0.1 µM,"COc1cc(NC(=O)C2CCN(c3ccnc(-c4cccc(-n5cccn5)c4)n3)CC2)cc(OCc2ccc(F)cc2)c1 [Example 42, 1-(2-(3-(1H-pyrazol-1-yl)phenyl)pyrimidin-4-yl)-N-(3-(4-fluorobenzoxy)-5-methoxyphenyl)piperidine-4-carboxamide]"
4,0.01 to 0.1 µM,"COc1cc(NC(=O)C2CCN(c3ccnc(-c4cccc(-n5cccn5)c4)n3)CC2)cc(OCC2CCCCC2)c1 [Example 45, 1-(2-(3-(1H-pyrazol-1-yl)phenyl)pyrimidin-4-yl)-N-(3-(cyclohexylmethoxy)-5-methoxyphenyl)piperidine-4-carboxamide]"
